Results taken from US20260198499A1, “PLANT STOMATAL OPENING REGULATOR” (priority 2022, published 2026).
Like-named read-outs stand apart in the source and are kept apart here.

Assays:
[1] = test system: ABA-related responses in Arabidopsis thaliana; assay: ABA-related responses (seed germination, ABA-responsive genes RAB18 and RD29B); type: in vivo
[2] = test system: stomatal aperture of Commelina benghalensis leaf disks; assay: Stomatal opening regulatory action measurement test 1 (IC50 of stomatal aperture, leaf disks); type: cell-based; conditions: read-out: IC50 (50% inhibitory concentration of stomatal aperture)
Description: (§1) Part of the stem of Commelina benghalensis was inserted into a planter filled with mixed soil of vermiculite and peat moss, and grown indoors with natural light (room temperature: 25±3° C.) for 2 to 4 weeks. The planter was placed in a dark room and subjected to dark treatment overnight. After the dark treatment, leaf disks with a diameter of 4 mm were cut from fully expanded leaves using a hole punch (Biospy Punch, Kai Medical).
Each test solution was dispensed into five wells of a 96-well plate at 50 μl/well, and the leaf disks were immersed therein, followed by incubation under light irradiation (50 μmol m^−2s^−1 blue light) for 3 hours. After incubation, stomatal closure was evaluated under observation images (600×) using a stereofluorescence microscope (Leica M205FA). The minor diameter of about 20 stomata (hereinafter referred to as “stomatal aperture”) was measured for each leaf disk.

[3] = test system: stomatal opening in intact leaves of chrysanthemums; assay: Stomatal opening regulatory action measurement test 3 (intact chrysanthemum leaves); type: in vivo; conditions: for inhibitory effect on stomatal opening in intact leaves: chrysanthemum leaves immersed in test solution, white light 3 hours, FIGS. 4 and 5
Description: (§2) A bouquet of chrysanthemums (Chrysanthemum) was purchased and cultured in a water bottle at 24° C. with a photoperiod of 16 h white light (100 μmol m^−2s^−1)/8 h darkness for 2 days. After the dark period ended, the leaves were immersed in a test solution (0.033% Makupika (spreader, Isk Biosciences K. K.)) containing the test compound (compound 1 (BITC), compound 4 (m-Bis-BITC), or abscisic acid (ABA)) and incubated under white light (100 μmol m^−2s^−1) for 3 hours or incubated with a photoperiod of 16 h light/16 h darkness (light→dark→light) for 48 hours. After incubation, the stomatal aperture was measured in the same manner as in Test Example 1.

[4] = test system: plasma membrane proton pump (H+-ATPase) phosphorylation in guard cells; assay: Immunohistochemical measurement of blue light- and fusicoccin-induced phosphorylation of the plasma membrane proton pump in guard cells; type: cell-based, Arabidopsis thaliana; conditions: compound 1 100 μM, compound 4 20 µM, compound 5 20 μM, FIG. 2; for inhibitory effect on blue light-induced phosphorylation of the plasma membrane proton pump: Arabidopsis guard cells; for inhibitory effect on fusicoccin-induced phosphorylation of the plasma membrane proton pump: fusicoccin 10 μM
Description: Blue light- and fusicoccin-induced phosphorylation of the plasma membrane proton pump in guard cells from the epidermis of Arabidopsis thaliana was measured immunohistochemically as previously reported (Hayashi et al. (2011) Immunohistochemical detection of blue light-induced phosphorylation of the plasma membrane H^+-ATPase in stomatal guard cells. Plant Cell Physiol. 52:1238-1248). The test compounds used were compound 1 (BITC), compound 4 (m-Bis-BITC), and compound 5 (Tris-BITC). The concentration of compound 1 during action was 100 μM, the concentration of compound 4 during action was 20 µM, the concentration of compound 5 during action was 20 μM, and the concentration of fusicoccin during action was 10 μM.

[5] = test system: stomatal opening of leaf disks; assay: Stomatal opening regulatory action measurement test 2 (light- and fusicoccin-induced stomatal opening); type: cell-based, Commelina benghalensis; conditions: compound 1 100 μM, FIG. 1
Description: as §1
[…] After incubation, stomatal closure was evaluated under observation images (600×) using a stereofluorescence microscope (Leica M205FA). The minor diameter of about 20 stomata (hereinafter referred to as “stomatal aperture”) was measured for each leaf disk. Based on the measured values of stomatal aperture at each concentration for each test compound, the 50% inhibitory concentration (IC50) of stomatal aperture was calculated.
Compound 1 (BITC: benzyl isothiocyanate) (final concentration in the test solution: 100 μM) and abscisic acid (final concentration in the test solution: 20 µM) were used as test compounds. A test solution was also prepared by adding fusicoccin (final concentration: 10 μM) in addition to the test compound. […] The mean and standard deviation (SD) were calculated based on the measured values.

[6] = test system: chrysanthemums (Chrysanthemum); assay: Drought tolerance test 1 (dehydrated chrysanthemum bouquet); type: in vivo; conditions: 21° C., 90 minutes, relative humidity 35 to 40%, FIG. 6
Description: as §2
After incubation for 3 hours in Test Example 5, the bouquet was dehydrated and incubated at 21° C. for 90 minutes under 10 μmol m^−2s^−1 white light at a relative humidity of 35 to 40%.

[7] = test system: ABA-responsive kinase substrate (AKS); assay: Immunoblot analysis of phosphorylation of ABA-responsive kinase substrate (AKS) in guard cells; type: cell-based; conditions: compound 1 100 μM; Vicia faba guard cells; FIG. 3
Description: Abscisic acid (ABA)-induced phosphorylation of ABA-responsive kinase substrate (AKS) in guard cells from the epidermis of broad bean (Vicia faba) was measured by immunoblot analysis as previously reported (Takahashi et al. (2007) Protein Phosphorylation and Binding of a 14-3-3 Protein in Vicia Guard Cells in Response to ABA. Plant and Cell Physiology. 48:1182-1191). The test compounds used were compound 1 (BITC) and abscisic acid. The concentration of compound 1 during action was 100 μM, and the concentration of abscisic acid during action was 20 μM.

[8] = test system: Chinese cabbage (Brassica rapa); assay: Drought tolerance test 2 (sprayed Chinese cabbage, water depleted); type: in vivo; conditions: Chinese cabbage sprayed with 50 μM, 24 hours, 25° C., relative humidity 40 to 50%, FIG. 7
Description: A test solution (0.033% Makupika (spreader, Isk Biosciences K.K.)) containing compound 4 (m-Bis-BITC) was sprayed onto 4- to 5-week-old Chinese cabbage (Brassica rapa) growing in 110 ml of soil. The concentration of compound 4 in the test solution was 50 μM. Then, the water was depleted, and the plants were cultured for 24 hours in a greenhouse at 25° C. at a relative humidity of 40 to 50% on a sunny day.

[9] = Commelina benghalensis leaf disks, 3 hours under 50 μmol m−2s−1 blue light

Structure (SMILES) | effect on ABA-related responses, including inhibition of seed germination and induction of ABA-responsive genes (RAB18 and RD29B) [1] | IC50 [2, 9] [µM] | inhibitory effect on stomatal opening in intact leaves [3] | inhibitory effect on blue light-induced phosphorylation of the plasma membrane proton pump [4] | inhibitory effect on fusicoccin-induced phosphorylation of the plasma membrane proton pump [4] | inhibitory effect on stomatal opening compared with abscisic acid ([5]; abscisic acid 20 µM, 3 hours red and blue light) | inhibitory effect on stomatal opening induced by fusicoccin ([5]; fusicoccin 10 μM, 3 hours) | drought tolerance and wilting [6] | induction of phosphorylation of the ABA-responsive kinase substrate [7] | IC50 ([2]; Commelina benghalensis, 3 h) [µM] | persistence of the stomatal opening inhibitory effect ([3]; chrysanthemum leaves, 48 hours incubation, m-Bis-BITC 50 µM, FIG. 5) | drought tolerance and wilting [8]
S=C=NCc1ccccc1 [Compound 1, benzyl isothiocyanate] | no effect | 29.1 | inhibitory effect on stomatal opening even in intact leaves | inhibitory effects | inhibitory effects | more potent inhibitory effect on stomatal opening than abscisic acid | exhibited an inhibitory effect on stomatal opening induced by fusicoccin | could improve drought tolerance and suppress wilting | did not induce phosphorylation |  |  | 
S=C=NCc1cccs1 [Compound 2] |  |  |  |  |  |  |  |  |  | 20.6 |  | 
S=C=NCc1cccc(CN=C=S)c1 [Compound 4] |  | 1.7 | inhibitory effect on stomatal opening even in intact leaves | inhibitory effects | inhibitory effects |  |  | could improve drought tolerance and suppress wilting |  |  | excellent in the persistence | could improve drought tolerance and suppress wilting over a long period of time
S=C=NCc1cc(CN=C=S)cc(CN=C=S)c1 [Compound 5, 1,3,5-tris(isothiocyanatomethyl)benzene] |  |  |  | inhibitory effects | inhibitory effects |  |  |  |  | 0.44 |  | 
S=C=NC[C@H]1CC[C@H](CN=C=S)CC1 [Compound 27, trans-1,4-bis(isothiocyanatomethyl)cyclohexane] |  |  |  |  |  |  |  |  |  | 11.4 |  | 
